Results: patent publication US9856232B1, “Dihydropyrimidinone derivatives” (KING SAUD UNIVERSITY, priority 2017, dated 2018)
Marks after values point to notes of the source that are not given here.

Key:
[1] = test system: Gastric lesions induced by 80% ethanol; experiment: Gastric lesions induced by ethanol (ulcer index by severity scores); format: in vivo, Albino Wistar rats; details: Rattus norvegicus, po, vs 80% EtOH group, read-out: Gastric lesions induced by 80% ethanol, % change; for inhibition in vivo at 12.5 mg/kg: compound 12.5 mg/kg; for inhibition in vivo at 25 mg/kg: compound 25 mg/kg; for inhibition in vivo at 50 mg/kg: compound 50 mg/kg
Description: (§1) Albino Wistar rats of either sex, approximately the same age, weighing 150 to 200 g and fed on a diet of standard chow were used in this study. They were randomly divided into experimental groups of six rats each. Compounds (N-1 to N-18) 12.5, 25, and 50 mg/kg were given orally in the anti-ulcer studies and intraperitoneally for gastric secretion evaluation. The rats were sacrificed, and the stomachs removed and opened along the greater curvature, After washing with saline, the gastric lesions were quantified by a person unaware of the treatments. The animal study protocol was approved by the Research and Ethics Committee of the Experimental Animal Care Society, College of Pharmacy, King Saud University, Riyadh, Saudi Arabia.
Gastric lesions induced by ethanol: Albino rats of either sex weighing between (150-200 g) are divided into groups. The animals were fasted for 24 hours with free access to water. Animals were given test drugs or standard drug. One hour later 1 mL/200 gm of 80% ethanol is administered orally to each animal. The animals were anaesthetized 1 hour latter with anesthetic ether and stomach was incised along the greater curvature and ulceration was scored. The number of ulcers and the length of each ulcer were measured. Ulcer index was calculated using severity scores. The mucosal damage was examined by means of a magnifying glass. For each stomach the mucosal damage was assessed according to the following scoring system: 0.5 redness; 1.0 spot ulcers; 1.5 hemorrhagic streaks; 2.0 ulcers<3, but≦5; 3.0 ulcers>5. Table 1 provides the effect of compounds on gastric lesions induced by 80% ethanol (mean±SE).

[2] = test system: Gastric lesions induced by necrotizing agents (80% ethanol, 0.2 mol/L NaOH or 25% NaCl); experiment: Gastric lesions induced by necrotizing agents (cytoprotection); format: in vivo, Albino Wistar rats; details: i.p, 30 min before necrotizing agent, mean ± SE
[3] = test system: Hypothermic restraint stress-induced intraluminal bleeding and gastric lesion; experiment: Hypothermic restraint stress-induced ulcers; format: in vivo, Albino Wistar rats; set-up: Gastric Lesion Ulcer Index: scale not given here; details: hypothermic restraint 3 h, mean ± SE
[4] = test system: gastric wall mucus in stomach tissue, change induced by 80% ethanol; experiment: Determination of gastric wall mucus (GWM); format: in vivo, Albino Wistar rats; details: i.p, 80% ethanol-treated rats, mean ± SE
Description: as §1
Determination of gastric wall mucus (GWM): Gastric wall mucus was determined according to the modified procedure. The glandular segment of the stomach was separated from the rumen of the stomach, weighed, and transferred immediately to 10 mL of 0.1% w/v Alcian blue solution (in […] sucrose solution buffered with […] sodium acetate at pH 5. Tissue was stained for 2 hours in Alcian blue, and excess dye was removed by two successive rinses with 10 mL of […] sucrose, firstly after 15 minutes and then after 45 minutes. Dye complexed with the gastric wall mucus was extracted with 10 ml of […] magnesium chloride which was intermittently shaken for 1 minute at 30 minute intervals for 2 hours. Four milliliters of blue extract were then vigorously shaken with an equal volume of diethyl ether. The resulting emulsion was centrifuged at 4000 r/min for 10 minutes and the absorbance of the aqueous layer was recorded at 580 nm. The quantity of Alcian blue extracted per gram of wet glandular tissue was then calculated. Table 6 provides the effect of compounds on the change in gastric wall mucus in stomach tissue induced by 80% ethanol (mean±SE).

[5] = test system: gastric mucosal non-protein sulfhydryls, induced by 80% ethanol; experiment: Estimation of non-protein sulfhydryls (NP-SH); format: in vivo, Albino Wistar rats; details: stomach tissue, 80% ethanol-treated rats, mean ± SE
Description: as §1
Estimation of non-protein sulfhydryls (NP_SH): Gastric mucosal non-protein sulfhydryls were measured according to the method. The glandular part of the stomach was homogenized in ice-cold 0.02 mmol/L ethylenediaminetetraacetic acid (EDTA). Aliquots of 5 mL of the homogenates were mixed in 15 mL test tubes with 4 mL of distilled water and 1 mL of 50% trichloroacetic acid (TCA). The tubes were shaken intermittently for 10 minutes and centrifuged at 3000 r/min. Two milliliters of supernatant were mixed with 4 mL of 0.4 mol/L Tris buffer at pH 8.9. Then 0.1 ML of 5, 5′-dithio-bis (2-nitrobenzoic acid) (DTNB) was added and the sample was shaken. The absorbance was measured within 5 minutes of DTNB addition at 412 nm against a reagent blank.

[6] = test system: total protein in stomach tissue, induced by 80% ethanol; experiment: Total protein in stomach tissue; format: in vivo, Albino Wistar rats; details: mean ± SE
[7] = test system: gastric mucosa of rats treated with 80% Ethanol; experiment: Histopathological evaluation of gastric tissue; format: in vivo, Albino Wistar rats; details: 50 mg/kg; FIG. 15B-15F
Description: Histopathological evaluation: Gastric tissue samples were fixed in neutral buffered formalin for 24 hours. Sections of gastric tissue were histopathologically examined to study the ulcerogenic and/or anti-ulcerogenic activity of compounds (N-3, N-8, N-11, and N-15). The tissues were fixed in 10% buffered formalin and processed using a VIP tissue processor. The processed tissues were embedded in paraffin blocks and sections about […] thick were cut using an American optical rotary microtome. These sections were stained with haematoxylin and eosin using routine procedures. The slides were examined microscopically for pathomorphological changes such as congestion, hemorrhage, edema, and erosions using an arbitrary scale for severity assessment of these changes (FIGS. 3-14).

in vivo = details: mouse
Source text: (§2) At the end of the study period, expired animals were counted for the calculation of LD50. The following arithmetic method from Karber (Arch. Exptl. Pathol. Pharmakol, […], 162, 480-483) was used for the determination of LD50: LD50=LD100−Σ×(a×b)/n
(§3) wherein n=total number of animals in a group; a=the difference between two successive doses of administered extract/substance; b=the average number of dead animals in two successive doses; and LD100=lethal dose causing the 100% death of all test animals.
(§4) Table 8 provides the LD50 values of the compounds determined by the Karber method.

mouse = experiment: in vivo; details: 24 h
Source text: as §2, §3, §4

[8] = dose 12.5, 80% ethanol-treated rats
[9] = dose 25, 80% ethanol-treated rats
[10] = dose 50, 80% ethanol-treated rats

SMILES | inhibition in vivo at 12.5 mg/kg [1] | inhibition in vivo at 25 mg/kg [1] | inhibition in vivo at 50 mg/kg [1] | Ulcer Index, 0.2 mol/L NaOH ([2]; 12.5 mg/kg) | Ulcer Index, 25% NaCl ([2]; 12.5 mg/kg) | Ulcer Index, 80% EtOH ([2]; 12.5 mg/kg) | Ulcer Index, 0.2 mol/L NaOH ([2]; 25 mg/kg) | Ulcer Index, 25% NaCl ([2]; 25 mg/kg) | Ulcer Index, 80% EtOH ([2]; 25 mg/kg) | Ulcer Index, 0.2 mol/L NaOH ([2]; 50 mg/kg) | Ulcer Index, 25% NaCl ([2]; 50 mg/kg) | Ulcer Index, 80% EtOH ([2]; 50 mg/kg) | Gastric Lesion Ulcer Index ([3]; 12.5 mg/kg) | Intraluminal Bleeding Score ([3]; 12.5 mg/kg) | Gastric Lesion Ulcer Index ([3]; 50 mg/kg) | Intraluminal Bleeding Score ([3]; 50 mg/kg) | Gastric Wall Mucus ([4]; 12.5 mg/kg) | Gastric Wall Mucus ([4]; 25 mg/kg) | Gastric Wall Mucus ([4]; 50 mg/kg) | NP-SH ([5]; dose 12.5) | other results
CN(C)c1ccc(C2NC(=O)NC=C2C(=O)c2ccc(N3CCCCC3)cc2)cc1 (centres unmarked) [Compound N-11, 4-(4-Dimethylaminophenyl)-5-[4-(piperidin-1-yl)benzoyl]-3,4-dihydropyrimidin-2(1H)-one] | 22.5% | 48.3% | 61.2% | 6.33 ± 0.42 | 6.00 ± 0.36 | 7.16 ± 0.30 | 3.66 ± 0.21 | 4.83 ± 0.40 | 6.16 ± 0.30 | 3.66 ± 0.33 | 3.83 ± 0.30 | 4.83 ± 0.30 | 29.83 ± 1.51 | 3.66 ± 0.33 | 21.00 ± 0.51 | 2.00 ± 0.36 | 192.87 ± 12.84^b μg/g | 224.88 ± 4.64*^b μg/g | 217.36 ± 3.31**^b μg/g | 2.93 ± 0.11^b nmol/g | Gastric Lesion Ulcer Index ([3]; 75 mg/kg): 29.00 ± 1.21; Intraluminal Bleeding Score ([3]; 75 mg/kg): 2.66 ± 0.33; NP-SH ([5]; dose 25): 3.40 ± 0.18^b nmol/g; NP-SH ([5]; dose 50): 4.35 ± 0.11***^b nmol/g; Total Protein [6, 8]: 53.89 ± 1.48*^b g/L; Total Protein [6, 9]: 64.27 ± 2.08***^b g/L; Total Protein [6, 10]: 72.25 ± 1.43***^b g/L; Gastric section, effect on gastric mucosa (histology) [7]: intact normal mucosa
O=C1NC=C(C(=O)c2ccc(N3CCCCC3)cc2)C(c2ccc([N+](=O)[O-])cc2)N1 (centres unmarked) [Compound N-3, 4-(4-Nitrophenyl)-5-[4-(piperidin-1-yl)benzoyl]-3,4-dihyropyrimidin-2(1H)-one] | 33.3% | 53.3% | 60% | 4.50 ± 0.22.*** | 5.16 ± 0.47 | 6.83 ± 0.30 | 2.66 ± 0.33 | 2.83 ± 0.30 | 4.16 ± 0.30 | 1.83 ± 0.40 | 1.66 ± 0.33 | 3.00 ± 0.36 | 24.16 ± 1.70 | 2.83 ± 0.30 | 13.83 ± 0.60 | 1.16 ± 0.30 | 242.08 ± 4.03*^b μg/g | 241.66 ± 6.91**^b μg/g | 256.18 ± 8.39***^b μg/g | 3.15 ± 0.20^b nmol/g | Gastric Lesion Ulcer Index ([3]; 25 mg/kg): 17.66 ± 0.76; Intraluminal Bleeding Score ([3]; 25 mg/kg): 1.50 ± 0.22; NP-SH ([5]; dose 25): 4.23 ± 0.23**^b nmol/g; NP-SH ([5]; dose 50): 4.56 ± 0.17***^b nmol/g; Total Protein [6, 8]: 58.68 ± 3.19*^b g/L; Total Protein [6, 9]: 74.65 ± 3.79*^b g/L; Total Protein [6, 10]: 95.80 ± 1.51***^b g/L; LD50 at 24 h (in vivo): 125 mg/kg; Dead (of 10 animals) (mouse; 5 mg/kg): 0; Dead (of 10 animals) (mouse; 25 mg/kg): 0; Dead (of 10 animals) (mouse; 50 mg/kg): 2; Dead (of 10 animals) (mouse; 100 mg/kg): 5; Dead (of 10 animals) (mouse; 200 mg/kg): 8; Dead (of 10 animals) (mouse; 300 mg/kg): 10; Gastric section, effect on gastric mucosa (histology) [7]: intact mucosa with mild ulceration
COc1ccccc1C1NC(=O)NC=C1C(=O)c1ccc(N2CCCCC2)cc1 (centres unmarked) [Compound N-8, 4-(2-Methoxyphenyl)-5-[4-(piperidin-1-yl)benzoyl]-3,4-dihydropyrimidin-2(1H)-one] | 33.3% | 50% | 53.3% | 6.66 ± 0.33 | 6.00 ± 0.25 | 7.00 ± 0.36 | 5.33 ± 0.71 | 5.00 ± 0.44 | 6.50 ± 0.42 | 3.83 ± 0.30 | 3.33 ± 0.30 | 5.83 ± 0.30 | 29.83 ± 1.50 | 3.50 ± 0.42 | 18.66 ± 0.55 | 2.50 ± 0.42 | 206.39 ± 7.18^b μg/g | 212.00 ± 6.40^b μg/g | 244.65 ± 5.36**^b μg/g | 3.49 ± 0.16^b nmol/g | Gastric Lesion Ulcer Index ([3]; 25 mg/kg): 27.66 ± 1.60; Intraluminal Bleeding Score ([3]; 25 mg/kg): 3.33 ± 0.21; NP-SH ([5]; dose 25): 3.61 ± 0.12^b nmol/g; NP-SH ([5]; dose 50): 4.61 ± 0.27**^b nmol/g; Total Protein [6, 8]: 45.90 ± 1.14^b g/L; Total Protein [6, 9]: 55.88 ± 1.71*^b g/L; Total Protein [6, 10]: 66.26 ± 1.47 g/L; LD50 at 24 h (in vivo): 55.5 mg/kg; Dead (of 10 animals) (mouse; 5 mg/kg): 0; Dead (of 10 animals) (mouse; 25 mg/kg): 2; Dead (of 10 animals) (mouse; 50 mg/kg): 6; Dead (of 10 animals) (mouse; 100 mg/kg): 9; Dead (of 10 animals) (mouse; 200 mg/kg): 10; Dead (of 10 animals) (mouse; 300 mg/kg): 10; Gastric section, effect on gastric mucosa (histology) [7]: intact normal mucosa
